Data from US6680379B1, “Organic anion transporter genes and proteins” (Metabasis Therapeutics, Inc., priority 1999, dated 2004).

Key:
[1] = target: T1, hOAT2A (Homo sapiens, UniProt Q9Y694); experiment: Competition assay of 3H-PAH uptake in EcR293/OAT2A cells; format: cell-based; set-up: Isolation of Full-length Human OAT2A and OAT2B cDNA; expressed in transfected cells; host or cells: EcR293 (Invitrogen); conditions: 100 μM competitor
T1 sequence (Q9Y694 1-546 isoform Q9Y694-2): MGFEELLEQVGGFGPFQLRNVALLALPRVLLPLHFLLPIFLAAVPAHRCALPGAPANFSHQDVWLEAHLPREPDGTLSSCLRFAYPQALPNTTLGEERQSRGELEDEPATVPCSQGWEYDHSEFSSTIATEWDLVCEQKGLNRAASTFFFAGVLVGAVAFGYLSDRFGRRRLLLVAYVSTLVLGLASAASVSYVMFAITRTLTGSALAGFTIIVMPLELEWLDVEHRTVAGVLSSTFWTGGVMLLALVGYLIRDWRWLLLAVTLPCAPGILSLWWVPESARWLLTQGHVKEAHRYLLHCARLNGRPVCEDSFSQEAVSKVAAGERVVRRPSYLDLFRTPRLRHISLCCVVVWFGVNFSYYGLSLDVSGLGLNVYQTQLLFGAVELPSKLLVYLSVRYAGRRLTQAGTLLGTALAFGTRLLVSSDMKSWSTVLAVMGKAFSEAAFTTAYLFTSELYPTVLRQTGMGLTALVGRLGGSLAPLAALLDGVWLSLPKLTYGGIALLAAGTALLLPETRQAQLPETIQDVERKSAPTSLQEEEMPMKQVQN

[2] = target: T1, hOAT2A; experiment: 3H-PAH uptake in EcR293 cells stably containing pIND(sp1)-hOAT2A, ponasterone induced; conditions: EcR293, 1.25 μg/ml ponasterone for 24 hours
Description: Vector pIND(sp1) (Invitrogen) contains the ecdysone-inducible promoter (EcRE). […] After cloning, the vectors were separately transfected into cell line EcR293 (Invitrogen). […] The pVgRXR vector constitutively expresses the ecdysone receptor and the retinoid X receptor (RXR). The ecdysone receptor and RXR form a heterodimer which, upon activation by the hormone ecdysone, binds to a promoter containing the EcRE. The pVgRXR vector was maintained within the EcR293 cell line by selection with 400 μg/ml zeocin. The pIND(sp1)-hOAT plasmids contain a neomycin resistance marker, and cells stably integrating the plasmids were selected for by culturing the cells in media supplemented with 400 μg/ml G418. After two weeks of selection, individual colonies appeared and were isolated and expanded. […] The cells were then subjected to standard transport assays.
Expression of hOAT1 at high levels can be easily achieved by inducing with ponasterone for twenty-four (24) hours.

Structure (SMILES)	effect on uptake of 3H-PAH in EcR293/OAT2A cells [1]	effect on uptake of 3H-PAH in EcR293/OAT2A cells ([1]; listed as sulfobromophthalein)	3H-PAH uptake, ponasterone induced versus non-induced cells (hOAT2A) [2]
O=C1OC(c2ccc(O)c(S(=O)(=O)O)c2)(c2ccc(O)c(S(=O)(=O)O)c2)c2c(Br)c(Br)c(Br)c(Br)c21 [BSP, sulfobromophthalein]	blocked	competed	
Nc1ccc(C(=O)NCC(=O)O)cc1 [PAH, p-aminohippurate]			approximately 2.6 fold
